Results published in patent US9790235B2, “MK2 inhibitors and uses thereof” (Celgene CAR LLC, priority 2014, dated 2017).
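Further: covalent binding read from centroid mass shift of compound-treated versus untreated intact MK2, shift divided by compound molecular weight, giving fraction of total protein bound.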

The compounds below were run against MK2 (Homo sapiens (Human), UniProt P49137). Details: not given.
Sequence of MK2 (P49137 whole entry): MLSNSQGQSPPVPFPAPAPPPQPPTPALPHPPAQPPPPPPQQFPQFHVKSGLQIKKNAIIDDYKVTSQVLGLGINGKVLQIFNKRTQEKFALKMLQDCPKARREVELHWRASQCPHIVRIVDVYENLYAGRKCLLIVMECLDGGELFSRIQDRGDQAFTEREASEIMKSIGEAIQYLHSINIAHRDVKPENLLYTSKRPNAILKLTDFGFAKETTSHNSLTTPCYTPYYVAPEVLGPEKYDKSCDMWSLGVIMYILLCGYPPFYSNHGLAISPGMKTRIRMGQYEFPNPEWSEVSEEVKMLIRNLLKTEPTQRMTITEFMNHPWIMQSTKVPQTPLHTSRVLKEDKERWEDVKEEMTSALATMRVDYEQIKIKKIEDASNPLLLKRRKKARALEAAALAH
For C[C@@H]1CNc2c(sc3ccc4nc(Nc5nc(Cl)ncc5C(=O)NC5CCN(C)CC5)ccc4c23)C(=O)N1 [I-19, (R)-2-chloro-4-((10-methyl-8-oxo-9,10,11,12-tetrahydro-8H-[1,4]diazepino-[5′,6′:4,5]thieno[3,2-f]quinolin-3-yl)amino)-N-(1-methylpiperidin-4-yl)pyrimidine-5-carboxamide], the “Mass Modification” value was “G (key: E: mass modification of ≧70%; F: mass modification of 31-69%; G: mass modification ≦30%)”.

Same assay, conditions: percentage of modified protein after 60 minutes at room temperature, 10-fold excess of compound; MALDI (I-1 to I-50), magnetic bead MALDI (I-51 to I-129)
For C[C@@H]1CNc2c(sc3ccc4nc(Nc5cc(F)nc(F)c5)ccc4c23)C(=O)N1 [I-6, (R)-3-((2,6-difluoropyridin-4-yl)amino)-10-methyl-9,10,11,12-tetrahydro-8H-[1,4]diazepino[5′,6′:4,5]thieno[3,2-f]quinolin-8-one], the “Mass Modification” value was “G (mass modification ≦30%)”.
With C[C@@H]1CNc2c(sc3ccc4nc(Nc5cc(F)nc(OCCN(C)C)n5)ccc4c23)C(=O)N1 [I-32, (R)-3-((2-(2-(dimethylamino)ethoxy)-6-fluoropyrimidin-4-yl)amino)-10-methyl-9,10,11,12-tetrahydro-8H-[1,4]diazepino[5′,6′:4,5]thieno[3,2-f]quinolin-8-one] the “Mass Modification” value was “F (mass modification of 31-69%)”.
For C[C@@H]1CNc2c(sc3ccc4nc(Nc5cc(F)nc(OC6COC6)n5)ccc4c23)C(=O)N1 [I-37, (R)-3-((6-fluoro-2-(oxetan-3-yloxy)pyrimidin-4-yl)amino)-10-methyl-9,10,11,12-tetrahydro-8H-[1,4]diazepino[5′,6′:4,5]thieno[3,2-f]quinolin-8-one], the “Mass Modification” value was “F (mass modification of 31-69%)”.
C[C@@H]1CNc2c(sc3ccc4nc(Nc5cc(F)nc(OCC6(C)COC6)n5)ccc4c23)C(=O)N1 [I-39, (R)-3-((6-fluoro-2-((3-methyloxetan-3-yl)methoxy)pyrimidin-4-yl)amino)-10-methyl-9,10,11,12-tetrahydro-8H-[1,4]diazepino[5′,6′:4,5]thieno[3,2-f]quinolin-8-one] was tested, and the “Mass Modification” value was “G (mass modification ≦30%)”.
With C[C@@H]1CNc2c(sc3ccc4nc(Nc5cc(F)nc(O[C@H]6CCOC6)n5)ccc4c23)C(=O)N1 [I-40, (R)-3-((6-fluoro-2-(((S)-tetrahydrofuran-3-yl)oxy)pyrimidin-4-yl)amino)-10-methyl-9,10,11,12-tetrahydro-8H-[1,4]diazepino[5′,6′:4,5]thieno[3,2-f]quinolin-8-one] the “Mass Modification” value was “G (mass modification ≦30%)”.
In the case of C[C@@H]1CNc2c(sc3ccc4nc(Nc5cc(F)nc(O[C@@H]6CCOC6)n5)ccc4c23)C(=O)N1 [I-41, (R)-3-((6-fluor-2-(((R)-tetrahydrofuran-3-yl)oxy)pyrimidin-4-yl)amino)-10-methyl-9,10,11,12-tetrahydro-8H-[1,4]diazepino[5′,6′:4,5]thieno[3,2-f]quinolin-8-one], the “Mass Modification” value was “G (mass modification ≦30%)”.
In the case of C[C@@H]1CNc2c(sc3ccc4nc(Nc5nc(F)cc(OCC6(C)COC6)n5)ccc4c23)C(=O)N1 [I-43, (R)-3-((4-fluoro-6-((3-methyloxetan-3-yl)methoxy)pyrimidin-2-yl)amino)-10-methyl-9,10,11,12-tetrahydro-8H-[1,4]diazepino[5′,6′:4,5]thieno[3,2-f]quinolin-8-one], the “Mass Modification” value was “G (mass modification ≦30%)”.
C[C@@H]1CNc2c(sc3ccc4nc(Nc5nc(F)cc(O[C@@H]6CCOC6)n5)ccc4c23)C(=O)N1 [I-46, (R)-3-((4-fluoro-6-(((R)-tetrahydrofuran-3-yl)oxy)pyrimidin-2-yl)amino)-10-methyl-9,10,11,12-tetrahydro-8H-[1,4]diazepino[5′,6′:4,5]thieno[3,2-f]quinolin-8-one] was tested, and the “Mass Modification” value was “F (mass modification of 31-69%)”.
In the case of C[C@@H]1CNc2c(sc3ccc4nc(Nc5cc(F)nc(O[C@@H]6CCN(C)C6)n5)ccc4c23)C(=O)N1 [I-49, (R)-3-((6-fluor-2-(((R)-1-methylpyrrolidin-3-yl)oxy)pyrimidin-4-yl)amino)-10-methyl-9,10,11,12-tetrahydro-8H-[1,4]diazepino[5′,6′:4,5]thieno[3,2-f]quinolin-8-one], the “Mass Modification” value was “G (mass modification ≦30%)”.
